Test results: patent US6821991B2, “2-substituted thiazolidinones as β-3 adrenergic receptor agonists” (Wyeth, priority 2000, dated 2004)

Columns and labels:
[1] = target: T1, β3-adrenergic receptor (Homo sapiens, UniProt P13945); assay: cAMP accumulation (SPA) in CHO cells transfected with human β3 adrenergic receptor; assay type: cell-based; conditions: for EC50: CHO cells expressing human β3-AR, cAMP, 30 min, 37° C., 10^-9 M to 10^-5 M; for IA(β3): maximal response relative to maximal response of isoproterenol at 10^-5 M
T1 construct: Full length β3 AR clones (402 amino acids) containing the last 6 amino acids of hβ3-AR are prepared; expressed in transfected cells; host or cells: CHO (Chinese hamster ovary) cells
Protocol: The ability of compounds of this invention to treat or inhibit disorders related to insulin resistance or hyperglycemia was established with representative compounds of this invention in the following standard pharmacological test procedures, which measured the binding selectivity to the β1, β2, and β3 adrenergic receptors. Binding to the receptors was measured in Chinese Hamster ovary (CHO) cells that were transfected with adrenergic receptors.
Cloning of Human β3-AR Genomic DNA: CDNA was constructed by ligating four polymerase chain reaction (PCR) products using the following primers: an ATG-Narl fragment, sense primer 5′-[…]3′, and anti-sense primer 5′[…]3′; a Narl-Accl fragment, 5′[…]3′ as sense and 5′[…]3′ as anti-sense primer; an Accli-Styl fragment, sense primer 5′[…]3′ and anti-sense primer 5′[…]3′ and a Styl-TAG fragment, with sense primer 5′[…]3′ and anti-sense primer 5′[…]3′. The corresponding primer sequences are described in Mantzoros, C. […] The four fragments are ligated into a pUC 18 plasmid (Gibco-BRL) and sequenced.
Binding Procedure: Clones expressing receptor levels of 70 to 110 fmoles/mg protein were used in the test procedures. CHO cells were grown in 24-well tissue culture plates in Dulbecco's Modified Eagle Media with 10% fetal bovine serum, MEM non-essential amino acids, Penicillin-Streptompycin and Geneticin. On the day of test procedure, growth medium was replaced with preincubation media (Dulbecco's Modified Eagle Media) and incubated for 30 minutes at 37° C. […] Test compounds were tested over a concentration range of 10^−9 M to 10^−5 M for β3 cells and 10^−8 to 10^−4 M for β1 and β2 transfected cells. Isoproterenol (10^−5 M) was used as an internal standard for comparison of activity. Cells were incubated at 37° C. on a rocker for 30 min with the β3 cells and 15 min for β1 and β2 cells. Incubation was stopped with the addition of 0.2N HCl and neutralized with 2.5N NaOH. The plates, containing the cells and neutralized media, were stored at −20 degrees celsius until ready to test for cAMP using the SPA test kit (Amersham).
Data Analysis and Results: Data collected from the SPA test procedure were analyzed as per cent of the maximal isoproterenol response at 10^−5 M. Activity curves were plotted using the SAS statistical and graphics software.

T1 sequence (P13945 whole entry): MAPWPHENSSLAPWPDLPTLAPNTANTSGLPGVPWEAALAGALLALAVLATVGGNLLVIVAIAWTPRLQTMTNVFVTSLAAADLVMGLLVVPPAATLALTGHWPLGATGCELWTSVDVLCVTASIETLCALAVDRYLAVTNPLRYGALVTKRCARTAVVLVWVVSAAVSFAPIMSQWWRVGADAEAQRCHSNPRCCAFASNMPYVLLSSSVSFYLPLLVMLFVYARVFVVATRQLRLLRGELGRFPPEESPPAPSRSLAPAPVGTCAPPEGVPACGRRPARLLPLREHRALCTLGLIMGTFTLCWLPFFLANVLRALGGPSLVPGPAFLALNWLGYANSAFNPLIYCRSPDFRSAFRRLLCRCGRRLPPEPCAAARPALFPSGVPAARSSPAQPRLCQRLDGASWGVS

| SMILES | EC50 [1] | IA(β3) [1] | melting point |
| --- | --- | --- | --- |
| O=C(O)CC[C@H](NC1=NC(=O)C(=Cc2ccc(N3CCC(NC[C@H](O)COc4cccc5[nH]c(=O)[nH]c45)CC3)cc2)S1)C(=O)O [Example 29, (2S)-2-[5-(4-{4-[(2S)-2-Hydroxy-3-(2-oxo-2,3-dihydro-1H-benzoimidazol-4-yloxy)-propylamino]-piperidin-1-yl}-benzylidene)-4-oxo-4,5-dihydro-thiazol-2-ylamino]-pentanedioic acid] | 17 nM | 0.91 | > 270 °C (dec.) |
| CCOC(=O)CC[C@H](NC1=NC(=O)C(=Cc2ccc(N3CCC(NC[C@H](O)c4ccc(O)c(NS(C)(=O)=O)c4)CC3)cc2)S1)C(=O)OCC [Example 30, (2S)-2-[5-(4-{4-[(2R)-2-Hydroxy-2-(4-hydroxy-3-methanesulfonylamino-phenyl)-ethylamino]-piperidin-1-yl}-benzylidene)-4-oxo-4,5-dihydro-thiazol-2-ylamino]-pentanedioic acid diethyl ester] | 1 nM | 1.0 | > 130 °C (dec.) |
| O=C1CCc2c(OC[C@@H](O)CNCCOc3ccc(C=C4SC(N5CCCCC5)=NC4=O)cc3)ccc(O)c2N1 [Example 34, 8-Hydroxy-5-((2S)-2-hydroxy-3-{2-[4-(4-oxo-2-piperidin-1-yl-4H-thiazol-5-ylidenemethyl)-phenoxy]-ethylamino}-propoxy)-3,4-dihydro-1H-quinolin-2-one] | 3 nM | 1.0 | > 115 °C (dec.) |

Continued, values first:

| EC50 [1] | IA(β3) [1] | melting point | SMILES |
| --- | --- | --- | --- |
| 156 nM | 0.85 | 166 to 168 °C (dec.) | CN(C)CCCNC1=NC(=O)C(=Cc2ccc(N3CCC(NC[C@H](O)COc4ccccc4)CC3)cc2)S1 [Example 26, 2-(3-Dimethylamino-propylamino)-5-{4-[4-((2S)-2-hydroxy-3-phenoxy-propylamino)-piperidin-1-yl]-benzylidene}-thiazol-4-one] |
|  | 0.58 | 182 to 184 °C (dec.) | CCCCCCNC1=NC(=O)C(=Cc2ccc(N3CCC(NC[C@H](O)COc4ccccc4)CC3)cc2)S1 [Example 27, 2-Hexylamino-5-{4-[4-((2S)-2-hydroxy-3-phenoxy-propylamino)-piperidin-1-yl]-benzylidene}-thiazol-4-one] |
